Laboratory results taken from US9914730B2, “Azaquinazoline inhibitors of Atypical protein Kinase C” (Ignyta, Inc., priority 2012, dated 2018).

Molecular target: T1, full-length human PKCι (Homo sapiens, UniProt P41743)
T1 construct: Recombinant, full-length human PKCι expressed in Sf21 insect cells is also commercially available; purchased; host or cells: Sf21 insect cells
T1 sequence (P41743 1-596): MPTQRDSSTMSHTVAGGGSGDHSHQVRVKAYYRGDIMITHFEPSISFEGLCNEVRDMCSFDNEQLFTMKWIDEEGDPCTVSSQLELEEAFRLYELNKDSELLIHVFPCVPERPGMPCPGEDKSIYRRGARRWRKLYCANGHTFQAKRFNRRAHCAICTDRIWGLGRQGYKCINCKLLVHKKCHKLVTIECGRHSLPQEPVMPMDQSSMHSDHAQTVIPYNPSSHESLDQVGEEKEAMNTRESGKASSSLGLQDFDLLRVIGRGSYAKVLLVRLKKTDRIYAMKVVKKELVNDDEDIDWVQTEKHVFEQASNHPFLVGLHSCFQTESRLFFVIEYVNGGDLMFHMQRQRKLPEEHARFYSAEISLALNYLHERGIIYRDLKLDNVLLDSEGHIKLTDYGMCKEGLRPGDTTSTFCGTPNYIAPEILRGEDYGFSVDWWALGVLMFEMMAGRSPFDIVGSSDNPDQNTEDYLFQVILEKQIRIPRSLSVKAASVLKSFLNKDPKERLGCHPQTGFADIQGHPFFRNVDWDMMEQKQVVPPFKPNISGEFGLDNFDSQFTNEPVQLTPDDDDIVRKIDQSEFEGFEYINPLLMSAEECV
Assay: PKCι IC50 IMAP assay, full-length PKCι at 150 μM ATP
Assay type: biochemical
Details: read-out: IC50 in IMAP assay against full length PKCi at 150 μM ATP
Outline: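 IMAP fluorescence polarisation (ex 485/em 530 nm) read-out; % inhibition set from no-compound (0%) and no-enzyme (100%) controls, IC50 from dose-response curve fit. Sf21-expressed full-length enzyme ~15 pM, 100 nM FAM peptide, ATP 150 μM (5× KM^APP), 60 min at RT.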

Compound | IC50 [nM]
CN1CCN(c2cccc(Nc3cc(-c4nc(N5CCC[C@H](O)C5)c5c(C6CC6)cncc5n4)ccn3)c2)CC1 [Example 737, (S)-1-(5-Cyclopropyl-2-{2-[3-(4-methyl-piperazin-1-yl)-phenylamino]-pyridin-4-yl}-pyrido[3,4-d]pyrimidin-4-yl)-piperidin-3-ol] | < 100
CN1CCN(c2cccc(Nc3cc(-c4nc(N5CC[C@@H](O)C5)c5c(C6CC6)cncc5n4)ccn3)c2)CC1 [Example 738, (R)-1-(5-Cyclopropyl-2-{2-[3-(4-methyl-piperazin-1-yl)-phenylamino]-pyridin-4-yl}-pyrido[3,4-d]pyrimidin-4-yl)-pyrrolidin-3-ol] | < 100
COCCNC(=O)C1CCN(c2nc(-c3ccnc(Nc4c(F)cccc4F)c3)nc3cncc(C4CC4)c23)CC1 [Example 739, 1-{5-Cyclopropyl-2-[2-(2,6-difluoro-phenylamino)-pyridin-4-yl]-pyrido[3,4-d]pyrimidin-4-yl}-piperidine-4-carboxylic acid (2-methoxy-ethyl)-amide] | 100 to 1000
N#Cc1cc(F)c(Nc2cc(-c3nc(N4CCNCC4)c4c(C5CC5)cncc4n3)ccn2)c(F)c1 [Example 740, 4-[4-(5-Cyclopropyl-4-piperazin-1-yl-pyrido[3,4-d]pyrimidin-2-yl)-pyridin-2-ylamino]-3,5-difluoro-benzonitrile] | 100 to 1000
O=C(C1CCN(c2nc(-c3ccnc(Nc4c(F)cccc4F)c3)nc3cncc(C4CC4)c23)CC1)N1CCNCC1 [Example 741, (1-{5-Cyclopropyl-2-[2-(2,6-difluoro-phenylamino)-pyridin-4-yl]-pyrido[3,4-d]pyrimidin-4-yl}-piperidin-4-yl)-piperazin-1-yl-methanone] | 100 to 1000
NC(=O)c1ccc(Nc2cc(-c3nc(N4CCNCC4)c4c(C5CC5)cncc4n3)ccn2)cc1 [Example 742, 4-[4-(5-Cyclopropyl-4-piperazin-1-yl-pyrido[3,4-d]pyrimidin-2-yl)-pyridin-2-ylamino]-benzamide] | < 100
c1ccn2nc(Nc3cc(-c4nc(N5CCNCC5)c5c(C6CC6)cncc5n4)ccn3)nc2c1 [Example 743, [4-(5-Cyclopropyl-4-piperazin-1-yl-pyrido[3,4-d]pyrimidin-2-yl)-pyridin-2-yl]-[1,2,4]triazolo[1,5-a]pyridin-2-yl-amine] | < 100
CNCCNC(=O)C1CCN(c2nc(-c3ccnc(Nc4c(F)cccc4F)c3)nc3cncc(C4CC4)c23)CC1 [Example 744, 1-{5-Cyclopropyl-2-[2-(2,6-difluoro-phenylamino)-pyridin-4-yl]-pyrido[3,4-d]pyrimidin-4-yl}-piperidine-4-carboxylic acid (2-methylamino-ethyl)-amide] | < 100
N#Cc1cccc(Nc2cc(-c3nc(N4CCNCC4)c4c(C5CC5)cncc4n3)ccn2)n1 [Example 746, 6-[4-(5-Cyclopropyl-4-piperazin-1-yl-pyrido[3,4-d]pyrimidin-2-yl)-pyridin-2-ylamino]-pyridine-2-carbonitrile] | < 100
CN1CCN(c2cccc(Nc3cc(-c4nc(N5CCC(O)(O)C(F)(F)C5)c5c(C6CC6)cncc5n4)ccn3)c2)CC1 [Example 747, 1-(5-Cyclopropyl-2-{2-[3-(4-methyl-piperazin-1-yl)-phenylamino]-pyridin-4-yl}-pyrido[3,4-d]pyrimidin-4-yl)-3,3-difluoro-piperidine-4,4-diol] | < 100
Fc1cc(F)c(Nc2cc(-c3nc(N4CCNCC4)c4c(C5CC5)cncc4n3)ccn2)cn1 [Example 748, [4-(5-Cyclopropyl-4-piperazin-1-yl-pyrido[3,4-d]pyrimidin-2-yl)-pyridin-2-yl]-(4,6-difluoro-pyridin-3-yl)-amine] | < 100
Fc1cnc(F)c(Nc2cc(-c3nc(N4CCNCC4)c4c(C5CC5)cncc4n3)ccn2)c1 [Example 749, [4-(5-Cyclopropyl-4-piperazin-1-yl-pyrido[3,4-d]pyrimidin-2-yl)-pyridin-2-yl]-(2,5-difluoro-pyridin-3-yl)-amine] | < 100
c1ccc(Nc2cc(-c3nc(N4CCNCC4)c4c(C5CC5)cncc4n3)ccn2)nc1 [Example 750, [4-(5-Cyclopropyl-4-piperazin-1-yl-pyrido[3,4-d]pyrimidin-2-yl)-pyridin-2-yl]-pyridin-2-yl-amine] | < 100
Fc1ccnc(Nc2cc(-c3nc(N4CCNCC4)c4c(C5CC5)cncc4n3)ccn2)c1 [Example 756, [4-(5-Cyclopropyl-4-piperazin-1-yl-pyrido[3,4-d]pyrimidin-2-yl)-pyridin-2-yl]-(4-fluoro-pyridin-2-yl)-amine] | < 100
Fc1cccc(F)c1Nc1cc(-c2nc(OC3CCNCC3)c3c(C4CC4)cncc3n2)ccn1 [Example 757, {4-[5-Cyclopropyl-4-(piperidin-4-yloxy)-pyrido[3,4-d]pyrimidin-2-yl]-pyridin-2-yl}-(2,6-difluoro-phenyl)-amine] | 100 to 1000
Cn1cc(CNc2cc(-c3nc(N4CCNCC4)c4c(C5CC5)cncc4n3)ccn2)cn1 [Example 758, [4-(5-Cyclopropyl-4-piperazin-1-yl-pyrido[3,4-d]pyrimidin-2-yl)-pyridin-2-yl]-(1-methyl-1H-pyrazol-4-ylmethyl)-amine] | < 100
CN1CCN(c2cccc(Nc3cc(-c4nc(N5CCCC5)c5c(C6CC6)cncc5n4)ccn3)c2)CC1 [Example 760, [4-(5-Cyclopropyl-4-pyrrolidin-1-yl-pyrido[3,4-d]pyrimidin-2-yl)-pyridin-2-yl]-[3-(4-methyl-piperazin-1-yl)-phenyl]-amine] | 100 to 1000
CN1CCN(c2cccc(Nc3cc(-c4nc(N5CCC5)c5c(C6CC6)cncc5n4)ccn3)c2)CC1 [Example 761, [4-(4-Azetidin-1-yl-5-cyclopropyl-pyrido[3,4-d]pyrimidin-2-yl)-pyridin-2-yl]-[3-(4-methyl-piperazin-1-yl)-phenyl]-amine] | 100 to 1000
COc1ccc(F)c(Nc2cc(-c3nc(N4CCNCC4)c4c(C5CC5)cncc4n3)ccn2)n1 [Example 762, [4-(5-Cyclopropyl-4-piperazin-1-yl-pyrido[3,4-d]pyrimidin-2-yl)-pyridin-2-yl]-(3-fluoro-6-methoxy-pyridin-2-yl)-amine] | < 100
CC1CN(c2nc(-c3ccnc(Nc4nc(F)ccc4F)c3)nc3cncc(C4CC4)c23)CC(C)N1 (stereo not shown) [Example 763, {4-[5-Cyclopropyl-4-(3,5-dimethyl-piperazin-1-yl)-pyrido[3,4-d]pyrimidin-2-yl]-pyridin-2-yl}-(3,6-difluoro-pyridin-2-yl)-amine] | < 100
Fc1cnc(Nc2c(F)cccc2F)cc1-c1nc(N2CCNCC2)c2c(C3CC3)cncc2n1 [Example 764, [4-(5-Cyclopropyl-4-piperazin-1-yl-pyrido[3,4-d]pyrimidin-2-yl)-5-fluoro-pyridin-2-yl]-(2,6-difluoro-phenyl)-amine] | < 100
Fc1ccc(Nc2cc(-c3nc(N4CCNCC4)c4c(C5CC5)cncc4n3)c(F)cn2)cc1 [Example 765, [4-(5-Cyclopropyl-4-piperazin-1-yl-pyrido[3,4-d]pyrimidin-2-yl)-5-fluoro-pyridin-2-yl]-(4-fluoro-phenyl)-amine] | < 100
c1cc(Nc2cc(-c3nc(N4CCCC4)c4c(C5CC5)cncc4n3)ccn2)cc(N2CCNCC2)c1 [Example 766, [4-(5-Cyclopropyl-4-pyrrolidin-1-yl-pyrido[3,4-d]pyrimidin-2-yl)-pyridin-2-yl]-(3-piperazin-1-yl-phenyl)-amine] | 100 to 1000
c1cc(Nc2cc(-c3nc(N4CCC4)c4c(C5CC5)cncc4n3)ccn2)cc(N2CCNCC2)c1 [Example 767, [4-(4-Azetidin-1-yl-5-cyclopropyl-pyrido[3,4-d]pyrimidin-2-yl)-pyridin-2-yl]-(3-piperazin-1-yl-phenyl)-amine] | 100 to 1000
CC(=O)Nc1cc(-c2nc(N3CCN[C@@H](COCc4ccccc4)C3)c3c(C4CC4)cncc3n2)ccn1 [Example 768, N-{4-[4-((R)-3-Benzyloxymethyl-piperazin-1-yl)-5-cyclopropyl-pyrido[3,4-d]pyrimidin-2-yl]-pyridin-2-yl}-acetamide] | < 100
CS(=O)(=O)C[C@H]1CN(c2nc(-c3ccnc(Nc4ccccc4)c3)nc3cncc(C4CC4)c23)CCN1 [Example 769, {4-[5-Cyclopropyl-4-((R)-3-methanesulfonyl-methyl-piperazin-1-yl)-pyrido[3,4-d]pyrimidin-2-yl]-pyridin-2-yl}-phenyl-amine] | < 100
CC(=O)Nc1cc(-c2nc(N3CCN[C@@H](CS(C)(=O)=O)C3)c3c(C4CC4)cncc3n2)ccn1 [Example 770, N-{4-[5-Cyclopropyl-4-((R)-3-methanesulfonyl-methyl-piperazin-1-yl)-pyrido[3,4-d]pyrimidin-2-yl]-pyridin-2-yl}-acetamide] | 100 to 1000
CS(=O)(=O)C[C@H]1CN(c2nc(-c3ccnc(Nc4ccc(F)cc4)c3)nc3cncc(C4CC4)c23)CCN1 [Example 771, {4-[5-Cyclopropyl-4-((R)-3-methanesulfonyl-methyl-piperazin-1-yl)-pyrido[3,4-d]pyrimidin-2-yl]-pyridin-2-yl}-(4-fluoro-phenyl)-amine] | 1000 to 10000
